Experimental data reported in patent US10752612B2, “PLK4 inhibitors” (LUDWIG INSTITUTE FOR CANCER RESEARCH LTD, priority 2015, dated 2020).
Like-named read-outs stand apart in the source and are kept apart here.

Legend:
[1] = target: T1, human Aurora A (Homo sapiens, UniProt O14965); experiment: Aurora A kinase assay (ADP-Glo); assay type: biochemical
T1 construct: purchased Millipore
T1 sequence (O14965 1-403): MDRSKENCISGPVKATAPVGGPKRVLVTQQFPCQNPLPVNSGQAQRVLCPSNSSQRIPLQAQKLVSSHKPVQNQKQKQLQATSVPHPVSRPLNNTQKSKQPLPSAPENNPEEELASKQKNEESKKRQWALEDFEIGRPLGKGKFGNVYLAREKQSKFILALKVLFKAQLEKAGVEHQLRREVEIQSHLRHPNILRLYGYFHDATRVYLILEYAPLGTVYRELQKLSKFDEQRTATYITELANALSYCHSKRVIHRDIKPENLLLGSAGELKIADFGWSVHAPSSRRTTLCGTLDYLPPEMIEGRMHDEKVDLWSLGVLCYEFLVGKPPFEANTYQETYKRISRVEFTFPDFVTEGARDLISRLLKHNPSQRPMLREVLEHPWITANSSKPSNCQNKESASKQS
Experimental: LRRASLG)+inhibitors arrayed in dose response (added as described above). […] Detection, measurement and data analysis were performed as described above.

[2] = test system: RPE1 Plk4 G95L cells; experiment: Centrosome number and passaging assay, RPE1 Plk4 G95L knock-in; assay type: cell-based, human; details: RPE1, both PLK4 alleles G95L
Source text: For generation of RPE1 cells with a Plk4(G95L) knock-in, we targeted the intronic region between exons 4 and 5 of the Plk4 locus with a gRNA sequence ([…], SEQ ID NO: 1) cloned into pX458 (a gift from Feng Zhang; Addgene plasmid #48138; 44). A repair template was cloned to introduce the G95L point mutation, as well as a neomycin resistance cassette within the intronic region (see FIG. 15). RPE1 cells were transfected with the Cas9/gRNA plasmid, then transduced with adeno-associated virus coding for the repair template using previously described methods (45). Cells were selected in 96-well plates for 2 weeks using 0.5 mg/ml Geneticin (Life Technologies). Positive clones homozygous for the G95L knock-in were identified by PCR and sequencing of genomic DNA.
Passaging assays. Cells were seeded into 10 cm tissue culture plates at 150,000 (HeLa, NIH/3T3 and RPE1) or 200,000 cells/plate (primary fibroblasts). Compounds were added at the indicated concentrations. At 4-day intervals, cells were harvested, counted using a TC10 cell counter, and re-seeded into new plates at the densities above. Results are from 2 independent experiments.

[3] = test system: full-length mouse Plk4-YFP; experiment: Plk4 stabilization assay, Plk4-YFP DLD-1 cells; assay type: cell-based, human; details: 25 nM or 100 nM, 24 hours
Experimental: Plk4 stabilization assay. Expression was induced in Plk4-YFP DLD-1 cells using 1 μg/ml doxycycline. At the same time, cells were treated with the indicated concentrations of compounds. Cells were incubated for 24 hours before harvesting for Western blotting (see below).
Western blotting. […] Cell extracts were stored at −80° C. until use.

[4] = target: ROS/ROS1 (Homo sapiens, UniProt P08922); experiment: Radiometric kinase assay, off-target ROS/ROS1; assay type: biochemical; details: off-target from DiscoveRx kinome profiling
Experimental: Aurora B and other radiometric kinase assays were performed by Reaction Biology (Malvern, Pa.). Kinome profiling of centrinone and centrinone-B was performed by DiscoveRx (San Diego, Calif.).

[5] = test system: HeLa cells; experiment: Proliferation assay, HeLa; assay type: cell-based, human
Experimental: Proliferation assays. For each condition, cells were seeded in triplicate into 6-well plates at 50,000 cells/well. Compounds were added at the indicated concentrations. At 24-hour intervals, 3 wells were harvested per condition. Cell counting was performed using a TC10 automated cell counter (Bio-Rad). Results are from 3 independent experiments.

[6] = test system: NIH/3T3 cells; experiment: Cilia formation assay in NIH/3T3 cells; assay type: cell-based, mouse; details: serum-starved NIH/3T3
Experimental: Cilia formation assay in NIH/3T3 cells. […] Cells were seeded onto coverslips and starved for 40 hours by replacing their media with DMEM+0.5% defined bovine serum. Cells were then washed with PBS, fixed with 100% methanol (−20° C., 5 minutes), stained with antibodies against γ-tubulin and IFT-88, and mounted onto slides. Image acquisition and deconvolution were performed on the DeltaVision system, as above. Subsequent image processing was performed in ImageJ.

[7] = test system: Plk4; experiment: Plk4 intensity at centrosomes, HeLa; assay type: cell-based, human; details: 125 nM, 8 hours
Source text: FIGS. 13A-13D. Centriole number set points arise from a dynamic equilibrium between centriole overduplication and removal of cells with extra centrioles. […] Yellow arrowheads mark centrin foci. Each frame was acquired at NEBD when the centrosomes are optimally distributed for counting. Times in the bottom left of each panel are in minutes relative to NEBD in the mother cell. Scale bar, 10 μm. (FIG. 13B) Histogram of mitotic outcomes for HeLa cells with <2, 2 or >2 centrosomes. The fates of daughter cells arising from 2-centrosome bipolar mitosis, multi-centrosome bipolar mitosis, and multi-centrosome multipolar mitosis are shown below. Data are mean+/−SD (N=2). […] Intervals are based on the time of NEBD in the mother cells. The diagonal line represents the 2:1 ratio expected under normal conditions; points above or below this line correspond to over- or under-duplication, respectively. […] Boxed regions are magnified 2.3× in panels below. Scale bar, […]. The Plk4 intensity at centrosomes was quantified and normalized to the intensity in untreated cells. Data are mean+/−SD (N=3).

[8] = test system: Xenopus multiciliated cells; experiment: Multiciliation assay in Xenopus embryos; assay type: in vivo
Experimental: Multiciliation assay in Xenopus embryos. Xenopus embryos were obtained by in vitro fertilization using standard protocols (49) approved by the Northwestern University Institutional Animal Care and Use Committee. Fertilized Xenopus embryos were injected with mRNA encoding the centriole marker Centrin4-GFP (333 pg/embryo) and a Dexamethasone-inducible Multicilin (hGR 3′MCI; 160 pg/embryo) (50, 51). […] Embryos were treated for 13 hours at room temperature, fixed in 4% paraformaldehyde and treated with the actin stain phalloidin. Confocal image stacks were collected using a Nikon AIR microscope and centriole numbers were manually quantified in Nikon Elements software. For each condition, centriole numbers were quantified from approximately 100 cells from at least 3 embryos.

Chain of ROS/ROS1 (P08922 28-2347): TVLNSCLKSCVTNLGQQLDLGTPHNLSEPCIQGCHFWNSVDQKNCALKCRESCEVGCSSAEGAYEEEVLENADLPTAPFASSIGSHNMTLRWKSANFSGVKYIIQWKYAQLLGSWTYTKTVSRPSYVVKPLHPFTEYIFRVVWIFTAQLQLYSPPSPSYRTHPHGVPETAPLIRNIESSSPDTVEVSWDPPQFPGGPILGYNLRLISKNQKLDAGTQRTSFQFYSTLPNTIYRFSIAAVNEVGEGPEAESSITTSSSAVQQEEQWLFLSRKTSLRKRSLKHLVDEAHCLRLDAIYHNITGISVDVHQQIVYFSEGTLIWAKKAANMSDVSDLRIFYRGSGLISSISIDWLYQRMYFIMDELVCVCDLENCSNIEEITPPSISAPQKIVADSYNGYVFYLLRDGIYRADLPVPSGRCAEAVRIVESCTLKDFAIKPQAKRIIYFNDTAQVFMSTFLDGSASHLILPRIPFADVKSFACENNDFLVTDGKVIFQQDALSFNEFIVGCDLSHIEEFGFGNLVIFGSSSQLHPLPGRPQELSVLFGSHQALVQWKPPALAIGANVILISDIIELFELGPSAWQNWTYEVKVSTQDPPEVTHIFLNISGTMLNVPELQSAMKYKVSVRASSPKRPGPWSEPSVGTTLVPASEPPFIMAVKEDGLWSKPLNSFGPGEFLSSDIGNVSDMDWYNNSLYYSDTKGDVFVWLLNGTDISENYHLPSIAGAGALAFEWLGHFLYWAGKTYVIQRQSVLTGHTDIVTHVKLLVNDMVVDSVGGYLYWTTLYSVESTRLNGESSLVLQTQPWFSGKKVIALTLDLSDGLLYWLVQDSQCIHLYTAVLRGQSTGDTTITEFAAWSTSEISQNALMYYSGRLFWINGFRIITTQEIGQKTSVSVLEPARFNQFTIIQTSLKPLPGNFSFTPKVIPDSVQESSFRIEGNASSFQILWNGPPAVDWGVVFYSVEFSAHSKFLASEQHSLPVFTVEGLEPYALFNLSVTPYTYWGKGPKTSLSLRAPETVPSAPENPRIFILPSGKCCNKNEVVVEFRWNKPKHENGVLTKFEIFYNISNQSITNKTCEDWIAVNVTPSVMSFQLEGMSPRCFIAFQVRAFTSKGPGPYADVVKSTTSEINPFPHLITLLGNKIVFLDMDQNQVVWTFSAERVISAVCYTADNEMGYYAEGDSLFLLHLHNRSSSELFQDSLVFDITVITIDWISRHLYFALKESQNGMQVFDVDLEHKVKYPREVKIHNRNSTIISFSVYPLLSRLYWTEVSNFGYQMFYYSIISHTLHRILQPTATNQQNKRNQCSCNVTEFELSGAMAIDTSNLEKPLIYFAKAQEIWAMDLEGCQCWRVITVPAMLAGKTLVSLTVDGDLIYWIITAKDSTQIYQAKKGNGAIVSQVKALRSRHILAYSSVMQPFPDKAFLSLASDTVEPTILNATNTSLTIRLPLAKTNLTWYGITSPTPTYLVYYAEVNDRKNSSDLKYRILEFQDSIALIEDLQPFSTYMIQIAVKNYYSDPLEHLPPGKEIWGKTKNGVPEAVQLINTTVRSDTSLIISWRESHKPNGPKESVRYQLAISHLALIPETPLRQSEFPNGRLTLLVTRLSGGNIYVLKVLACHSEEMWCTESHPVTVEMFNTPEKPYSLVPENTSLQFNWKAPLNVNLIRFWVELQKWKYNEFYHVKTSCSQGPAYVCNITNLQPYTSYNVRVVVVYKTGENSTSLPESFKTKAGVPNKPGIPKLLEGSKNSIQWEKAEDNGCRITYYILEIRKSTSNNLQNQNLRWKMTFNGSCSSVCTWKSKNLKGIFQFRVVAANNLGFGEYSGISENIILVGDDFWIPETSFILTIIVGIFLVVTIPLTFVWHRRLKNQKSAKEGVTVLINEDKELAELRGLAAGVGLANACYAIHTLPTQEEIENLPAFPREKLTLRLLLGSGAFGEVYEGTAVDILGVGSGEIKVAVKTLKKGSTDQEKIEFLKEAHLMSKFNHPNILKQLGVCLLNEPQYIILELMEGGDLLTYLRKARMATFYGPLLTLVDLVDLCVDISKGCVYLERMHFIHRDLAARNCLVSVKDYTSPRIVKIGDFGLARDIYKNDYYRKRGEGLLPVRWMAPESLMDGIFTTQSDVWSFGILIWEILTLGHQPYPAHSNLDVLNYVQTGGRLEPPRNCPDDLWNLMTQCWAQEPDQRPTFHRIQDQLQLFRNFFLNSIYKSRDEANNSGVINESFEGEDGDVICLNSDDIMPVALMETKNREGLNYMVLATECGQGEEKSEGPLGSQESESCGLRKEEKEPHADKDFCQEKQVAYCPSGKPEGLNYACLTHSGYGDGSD

Structure (SMILES): COc1c(Nc2cc(C)[nH]n2)nc(Sc2ccc(S(=O)(=O)Cc3cccc([N+](=O)[O-])c3F)cc2F)nc1N1CCOCC1 [Centrinone, 2-((2-fluoro-4-((2-fluoro-3-nitrobenzyl)sulfonyl)phenyl)thio)-5-methoxy-N-(5-methyl-1H-pyrazol-3-yl)-6-morpholinopyrimidin-4-amine]
- Ki [1]: 171 nM
- centrosome loss and proliferation [2]: did not lead to centrosome loss or proliferation arrest
- Plk4-YFP stabilization [3]: more substantial stabilization
- Ki [4]: 2.77 nM
- proliferation versus controls ([5]; HeLa, first two days after addition): identical to controls
- cell death per generation explaining reduced proliferation rate ([5]; centrosome-less HeLa, theoretical curves versus measurements): 25%
- primary cilia [6]: prevents assembly of primary cilia
- Plk4 level at the centrosome [7]: double
- centriole number in multiciliated cells [8]: dramatically reduced centriole numbers
- centriole number in multiciliated cells ([8]; listed as centrinone): reduced centriole number
